Test results reported in PMC4445455 (The FEBS journal, 2015).
Read-outs that look alike come from different tables or passages of the source.

What was measured:
E. coli DHFR [1] = target: T1, E. coli DHFR (Escherichia coli, UniProt P0ABQ4); format: biochemical; conditions: for inhibition at 1 mM inhibitor concentration (in words): E. coli DHFR
human DHFR [2] = target: T2, human DHFR (Homo sapiens, UniProt P00374); format: biochemical
T2 sequence (P00374 1-187): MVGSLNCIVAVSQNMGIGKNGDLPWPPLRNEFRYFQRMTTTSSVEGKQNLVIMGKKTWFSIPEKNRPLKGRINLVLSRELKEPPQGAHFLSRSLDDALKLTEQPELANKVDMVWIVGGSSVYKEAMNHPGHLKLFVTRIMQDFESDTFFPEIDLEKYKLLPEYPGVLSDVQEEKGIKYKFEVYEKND

human DHFR [3] = target: T2, human DHFR; conditions: product inhibition; cited from earlier work
E. coli DHFR [4] = target: T1, E. coli DHFR; conditions: product inhibition; cited from earlier work
[5] = previous study; cited from earlier work
cancer cells = conditions: previous study; cited from earlier work
E. coli DHFR [6] = target: T1, E. coli DHFR; assay: Inhibition kinetics: substrate titration at fixed inhibitor concentrations; format: biochemical
E. coli DHFR [7] = target: T1, E. coli DHFR; assay: Progress curve analysis, slow tight binding; format: biochemical
human DHFR [8] = target: T2, human DHFR; assay: Progress curve analysis, slow tight binding, human DHFR; format: biochemical; conditions: time course of NADPH depletion
[9] = IC-50, human DHFR 12.4 nM, 60 μM NADPH, 50 μM H2F, 100 mM HEPES pH 7.3

T1 sequence (P0ABQ4 whole entry): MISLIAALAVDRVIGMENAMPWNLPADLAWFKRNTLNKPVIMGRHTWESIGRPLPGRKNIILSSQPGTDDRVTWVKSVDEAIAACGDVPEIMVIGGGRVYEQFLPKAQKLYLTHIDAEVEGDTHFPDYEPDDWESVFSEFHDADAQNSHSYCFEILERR

Compound	IC50 (E. coli DHFR [1]) [µM]	Ki (E. coli DHFR [1]) [µM]	solubility in water (Solubility in water)	inhibition at 1 mM inhibitor concentration (in words) (E. coli DHFR [1])	Ki (human DHFR [2]) [nM]	IC50 (human DHFR [2]; [9]) [µM]	other results
C1=Cc2ccccc2Nc2ccccc21 [ISB, 2,2'-Iminostilbene]	587.8 ± 1.2	35.2 ± 5.36	sparsely soluble in water				IC50 (human DHFR [2]; IC-50, human DHFR, table footnote to ND): > 2000 µM
NC(=O)c1ccc[n+]([C@@H]2O[C@H](COP(=O)([O-])OP(=O)(O)OC[C@H]3O[C@@H](n4cnc5c(N)ncnc54)[C@H](OP(=O)(O)O)[C@@H]3O)[C@@H](O)[C@H]2O)c1 [NADP^+]							IC50 (human DHFR [3]): ~620 µM; IC50 (E. coli DHFR [4]): ~5 mM
Nc1ccc(NC(=O)c2ccc(C(=O)Nc3ccc(N)cc3)cc2)cc1 [NNBABD, N,N'-bis(4-aminophenyl)benzene-1,4-dicarboxamide]	176.5 ± 1.1	10.9 ± 2.16	sparsely soluble in water	almost complete inhibition	5160 ± 1410	254.5 ± 1.79	bactericidal activity [5]: didn't show; activity against cancer cells (cancer cells): didn't show
O=C(Nc1ccc(Oc2ccc(NC(=O)Nc3ccc([N+](=O)[O-])cc3)cc2)cc1)Nc1ccc([N+](=O)[O-])cc1 [NNCPPU, 1-(4-nitrophenyl)-3-[4-[4-[(4-nitrophenyl)carbamoylamino]phenoxy]phenyl]urea]	36.6 ± 1.1	2.06 ± 0.378	sparsely soluble in water	almost complete inhibition	1970 ± 329	68.9 ± 1.36	bactericidal activity [5]: didn't show; activity against cancer cells (cancer cells): didn't show
Nc1ccc(-c2nc3nc(N)nc(N)c3nc2-c2ccc(N)cc2)cc1 [NSC61642, 6,7-bis (4-aminophenyl) pteridine-2,4-diamine, reference compound]				unambiguous inhibition			
Nc1nc2[nH]cc(CCc3ccc(C(=O)N[C@@H](CCC(=O)O)C(=O)O)cc3)c2c(=O)[nH]1 [NSC698037, pemetrexed, reference compound]				unambiguous inhibition			
C#CCC(Cc1cnc2nc(N)nc(N)c2n1)c1ccc(C(=O)N[C@@H](CCC(=O)O)C(=O)O)cc1 (stereo partly drawn) [NSC754230, pralatrexate, reference compound]				unambiguous inhibition			
Nc1nc(N)c2c(ccc3[nH]ccc32)n1 [PQD, 7H-Pyrrolo(3,2-f)quinazoline-1,3-diamine, reference compound]	0.106 ± 0.0012	0.0042 ± 0.0005		unambiguous inhibition	93.4 ± 9	3.087 ± 0.0165	IC50 (human DHFR [2]; IC-50, human DHFR): 3.09 ± 0.17 µM; fold reduction in potency (IC-50) for human DHFR vs E. coli DHFR (human DHFR [2]; selectivity human/E. coli): 30 fold; Ki (E. coli DHFR [6]): 3.18 ± 0.51 nM; αKi (E. coli DHFR [6]; uncompetitive inhibition, NADPH titrated): 72.17 ± 4.23 nM; Kd (E. coli DHFR [7]): 4.48 ± 0.63 nM; kon (E. coli DHFR [7]): 350000 M⁻¹ s⁻¹; mode of inhibitor binding (time dependence, in words) (E. coli DHFR [7]; E. coli DHFR progress curves): classical tight-binding reversible inhibition; koff (E. coli DHFR [7]; time-dependent inactivation, 50 μM H2F, 60 μM NADPH): 0.094 ± 0.010 min^1; mode of inhibitor binding (time dependence, in words) (human DHFR [8]): didn't show any slow-onset of inhibition
